Measurements reported in article PMC2912430 (Biochemistry, 2010).
Where “and” joins values, the source holds several entries; their conditions need not be identical. Identical values can stand only once.

Legend:
IDI-1 = settings: positively charged ammonium group at physiological pH; cited from earlier work
[1] = biological target: T1, Thermus thermophilus IDI-2 (Thermus thermophilus, UniProt Q53W52); settings: cited from earlier work
Escherichia coli IDI-1 [2] = biological target: T2, Escherichia coli IDI-1 (Escherichia coli, UniProt Q46822); settings: cited from earlier work
[3] = biological target: T1, Thermus thermophilus IDI-2; assay: Acid lability assay, inhibition of the isomerization of IPP to DMAPP by IDI-2; type: biochemical; settings: for Type of inhibition: isomerization of IPP to DMAPP catalyzed by IDI-2
[4] = biological target: T1, Thermus thermophilus IDI-2; assay: Product studies by 1H NMR, incubation with IDI-2; type: biochemical; settings: for Isomerization (turnover as substrate) by NMR: IDI-2, 37 °C, spectra at one-hour intervals over 12 h; for Reactivity relative to the natural substrates (times less reactive): IDI-2, estimate based on NMR studies
Escherichia coli IDI-1 [5] = biological target: T2, Escherichia coli IDI-1; assay: Acid lability assay, inhibition of the isomerization of IPP to DMAPP by IDI-1; type: biochemical; settings: for Type of inhibition: isomerization of IPP to DMAPP catalyzed by IDI-1

T2 sequence (Q46822 whole entry): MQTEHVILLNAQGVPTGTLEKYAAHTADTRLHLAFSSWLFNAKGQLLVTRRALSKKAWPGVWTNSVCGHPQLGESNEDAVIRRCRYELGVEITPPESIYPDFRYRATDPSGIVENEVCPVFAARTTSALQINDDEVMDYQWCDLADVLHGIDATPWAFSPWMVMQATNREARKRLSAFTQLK

SMILES	Km (Escherichia coli IDI-1 [2]) [µM]	IC50 [3] [µM]	Type of inhibition [3]	Isomerization (turnover as substrate) by NMR [4]	Reactivity relative to the natural substrates (times less reactive) [4]	IC50 (Escherichia coli IDI-1 [5]) [µM]	Type of inhibition (Escherichia coli IDI-1 [5])	further results
CN(C)CCOP(=O)(O)OP(=O)(O)O [N,N-Dimethyl-2-amino-1-ethyl diphosphate]								Affinity for IDI-1 (IDI-1): sub-nanomolar affinity
C=C(C)CCOP(=O)(O)OP(=O)(O)O [IPP, isopentenyl diphosphate]	7.9							Km [1]: 5.6 µM
C#CCCOP(=O)(O)OP(=O)(O)O [1-OPP, 3-Butyn-1-yl diphosphate]		~50	competitive inhibitors	no evidence was seen for isomerization	at least 1000 times	~200	competitive inhibitors	
CC(C)=CCOP(=O)(O)OP(=O)(O)O [DMAPP, dimethylallyl diphosphate]	14							
C=C=CCOP(=O)(O)OP(=O)(O)O [2-OPP, 2,3-Butadien-1-yl diphosphate]		~50	competitive inhibitors	no evidence was seen for isomerization	at least 1000 times	~200	competitive inhibitors	Ki (Escherichia coli IDI-1 [5]; KI, IDI-1, acid lability assay, competitive inhibition): 49 µM and 31 µM
